The values below come from patent US5606061A, “Thioformamide derivatives” (Eisai Co., Ltd., priority 1991, dated 1997).

Experiment [1] concerns spontaneously hypertensive rats (SHR). The experiment is described as follows: Hypotensive activity on spontaneously hypertensive rat in waking state. The class given is in vivo. As to conditions: oral, 2 hours after administration, before administration = 100, control 93.3 ± 4.0, read-out: Blood pressure. The method, then:
(4) Hypotensive activity on spontaneously hypertensive rat in waking state
The compounds of the present invention were examined for hypotensive activity by orally administrating them to spontaneously hypertensive rats (SHR).
The systolic pressure of a spontaneously hypertensive male rat (weight: 260 to 360 g) which had been fasted for 12 hours was bloodlessly determined by the tail cuff method. Each drug was suspended in a 0.5% aqueous solution of methylcellulose and orally administered in a dose of 1 mg/kg. only the solvent was administered to control rats.
The blood pressures of the rats after 2 hours from the administration are given in the Table 1 with the blood pressures before the administration being taking as 100.

For experiment [2], the system named is anesthetized thoracotomized dog. The experiment in a line: Hypotensive activity and coronary bloodflow increasing activity on anesthetized thoracotomized dog. It counts as in vivo, dog (crossbred). As to conditions: Canis lupus familiaris, intravenous, 3 μg/kg. From the text:
(3) Hypotensive activity and coronary bloodflow increasing activity on anesthetized thoracotomized dog
The compounds of the present invention were examined for hypotensive activity and coronary bloodflow increasing activity by the use of an anesthetized thoracotomized dog.
A crossbred adult dog was used. This dog was thoracotomized under inhalation anesthesia with an enflurane/laughing gas. The probe of an electromagnetic flowmeter was set on the ramus circumflexes of the left coronary artery to determine the coronary bloodflow. The arterial pressure was determined by making the tip of a catheter-tipped pressure transducer indwell in the arcus aortae.
Each test compound was intravenously administered in a dose of 3 μg/kg through a catheter inserted into the femoral vein.
The hypotensive activity and coronary bloodflow increasing activity of each test compound are given in Table 1 as the changes of the blood pressure and coronary bloodflow based on those before the administration of the compound.

Another experiment has as its system rat aorta. The experiment is described as follows: Vasohypotonic activity on rat aorta specimen (inhibition of KCl-induced tension). As to conditions: rat aorta spiral specimen, 20 mM KCl, 30° C., KCl tension = 100%. It counts as cell-based, rat (SD). The method, then:
(1) Vasohypotonic activity on rat aorta specimen
The compounds of the present invention were examined for vasohypotonic activity by the use of the aorta extirpated from a rat.
A pectoral aorta was speedily extirpated from an SD male rat having a weight of 250 to 400 g and a spiral specimen was prepared from the aorta. This specimen was vertically suspended in the Organbath which was filled with the Krebs-Henseleit solution at 30° C. and through which a gas mixture comprising 95% of oxygen and 5% of carbon dioxide was passed. The change in the tension of the specimen was isotonically determined under a load of 1 g.
After the tension of the specimen has been stabilized, 20 mM of KCl was added to the bath. After the generated tension had been stabilized, a test compound was cumulatively added to the Organbath to determine the relaxation.
The extent of the relaxation, i.e., the inhibitory activity against the generation of tension was determined by taking the tension generated by the addition of KCl as 100% to calculate the IC50 value.

Experiment [3] concerns right ventricular papillary muscle of guinea pig. The experiment is described as follows: Activity on the action potential duration of the right ventricular papillary muscle of guinea pig (potassium channel activating effect). It counts as cell-based, guinea pig (Hartley). The following applies: Cavia porcellus, 0.5 h, 1 Hz, 36 ±0.5° C., 30 minutes each concentration, read-out: Concn. at which APD90 is shortened to 50% of the initial one IC50 (converted). From the text: (2) Activity on the action potential duration of the right ventricular papillary muscle of guinea pig
The compounds of the present invention were examined for the potassium channel activating effect by the use of the right ventricular papillary muscle of a guinea pig.
An action potential duration at 90% repolarization (hereinafter abbreviated to "APD90 ") reflects an outward potassium current. A compound having the potassium channel activating effect can activate the outward potassium channel to shorten the APD90 (see Proc. Natl. Acad. Sci., USA, 85, 8860 to 8864 (1988)).
A Hartley male guinea pig having a weight of 300 to 500 g was used. This guinea pig was killed by bleeding and the papillary muscle was extirpated from the right ventricle of the guinea pig and fixed in the Organbath. The surface of the papillary muscle was washed with Tyrode's solution at 36 ±0.5° C. through which an oxygen/carbon dioxide mixture was passed. The resulting specimen was stimulated by applying a rectangular wave pulse of 1 Hz to record the action potential by the glass microelectrode method.
After the action potential had been stabilized, the specimen was washed with Tyrode's solutions containing a test compound each for 30 minutes to determine the dose-response curve.

Setting [4] is: change of blood pressure vs before administration, read-out: Change (%) hypotensive activity.
Setting [5] is: change of coronary bloodflow vs before administration, read-out: Change (%) coronary blood-flow increasing activity.

Molecules are shown by their SMILES. Where two headings read alike, the source gives them in different places.

Regarding `CNC(=S)C1(c2ccc3nccn3c2)CCCCC1NCc1ccccc1` (stereo not drawn) [Compound 7], the response vs control in vivo at 1 mg/kg in experiment [1] is 87.9 ± 0.1%. Further, the change in vivo at 0.003 mg/kg is -7.3% in experiment [2] (setting [4]) and 22.8% in experiment [2] (setting [5]). In the experiment with rat aorta, this compound gave a half-maximal inhibitory concentration (IC50) of 1.78 nM.
Turning to `CNC(=S)C1(n2cnc([N+](=O)[O-])c2)CCCCC1=NOCc1ccccc1` (stereo not drawn) [Compound 11, anti-2-benzyloxyimino-N-methyl-1-(4-nitroimidazol-1-yl)cyclohexanecarbothioamide], in experiment [1], the response vs control in vivo at 1 mg/kg is 72.1 ± 4.5%. For the same compound, the change in vivo at 0.003 mg/kg in experiment [2] (setting [4]) was -28.5%; in experiment [2] (setting [5]) it was 152%. Further, the IC50 in experiment [3] is 148 nM; in the experiment on rat aorta, 0.55 nM.
With `CNC(=S)C1(c2ccc3nccn3c2)CCCCC1=O` (single isomer, unassigned; (-)) [Compound 1, (-)-1-(imidazo[1,2-a]pyridin-6-yl)-N-methyl-2-oxocyclohexanecarbothioamide], the response vs control in vivo at 1 mg/kg in experiment [1] worked out at 51.6 ± 5.1%. For the same compound, the change in vivo at 0.003 mg/kg in experiment [2] (setting [4]) was -22.1%; in experiment [2] (setting [5]) it was 78.6%. In addition, the IC50 in experiment [3] was 2630 nM; with rat aorta it was 18.6 nM.
For `CNC(=S)C1(c2ccc3nc(C(F)(F)F)cn3c2)CCCCC1=O` (single isomer, unassigned; (-)) [Compound 12, (-)-1-(2-trifluoromethylimidazo-[1,2-a]pyridin-6-yl)-N-methyl-2-oxocyclohexanecarbothioamide], the results for the change in vivo at 0.003 mg/kg in experiment [2] (setting [4]) and in experiment [2] (setting [5]) were -16.5% and 86.5%, respectively. Besides, it took 20 nM to reach half-maximal inhibition in the experiment on rat aorta (IC50).
As for `CNC(=S)C1(n2cnc([N+](=O)[O-])c2)CCCCC1OC(=O)c1ccccc1` (stereo not drawn) [Compound 9, 2-benzoyloxy-N-methyl-1-(4-nitroimidazol-1yl)cyclohexanecarbothioamide], in experiment [1], the response vs control in vivo at 1 mg/kg was found to be 62.4 ± 3.7%. In addition, the change in vivo at 0.003 mg/kg in experiment [2] (setting [4]) was -14.9%; in experiment [2] (setting [5]), 131%. Besides, the IC50 in experiment [3] is 479 nM; in the experiment with rat aorta it was 11 nM.
Consider `CNC(=S)C1(c2ccc3nccn3c2)CCCC[S+]1[O-]` (stereo not drawn) [Compound 8, 2-(imidazo[1,2-a]pyridin-6-yl)-N-methyltetrahydrothiopyran-2-carbothioamide1-oxide], for which the response vs control in vivo at 1 mg/kg in experiment [1] is 62 ± 6.5%. In addition, the change in vivo at 0.003 mg/kg in experiment [2] (setting [4]) was -10.5%; in experiment [2] (setting [5]), 70.7%. The compound also showed an IC50 in the experiment on rat aorta of 55 nM.
Turning to `CNC(=S)C1(c2ccc3nccn3c2)CCCCC1OCc1ccccc1` (stereo not drawn) [Compound 5, 2-benzyloxy-1-(imidazo[1,2-a]pyridin-6-yl)-N-methylcyclohexanecarbothioamide], the change in vivo at 0.003 mg/kg is -8.1% in experiment [2] (setting [4]) and 196% in experiment [2] (setting [5]). Moreover, the IC50 was 8.91 nM in experiment [3] and 0.355 nM with rat aorta.
On to `CNC(=S)C1(c2ccc3nccn3c2)CCCCC1=NOCc1ccccc1` (stereo not drawn) [Compound 6, anti-2-benzyloxyimino-1-(imidazo[1,2-a]pyridin-6-yl)-N-methylcyclohexanecarbothioamide], for which the response vs control in vivo at 1 mg/kg in experiment [1] worked out at 59.3 ± 6.9%. The change in vivo at 0.003 mg/kg in experiment [2] (setting [4]) is -25.2%; in experiment [2] (setting [5]) it was 67.5%. Further, the results for the 50% inhibitory concentration (IC50) (in experiment [3]; in the experiment with rat aorta) were 204 nM and 1.91 nM, respectively.
For the compound `CNC(=S)C1(c2ccc3nc(C)cn3c2)CCCC[S+]1[O-]` (single isomer, unassigned; (-)) [Compound 13, (-)-2-(2-methylimidazo-[1,2-a]pyridin-6-yl)-N-methyltetrahydrothiopyran-2-carbonthioamide 1-oxide], the change in vivo at 0.003 mg/kg in experiment [2] (setting [4]) is -30%; in experiment [2] (setting [5]) it was 228%. This compound also showed an IC50 in the experiment on rat aorta of 20 nM.
With `CNC(=S)C1(c2ccc3nccn3c2)CCCCC1OC(=O)c1ccccc1` (single isomer, unassigned; (-)) [Compound 4, (-)-2-benzoyloxy-1-(imidazo[1,2-a]pyridin-6-yl)-N-methylcyclohexanecarbothioamide], the change in vivo at 0.003 mg/kg in experiment [2] (setting [4]) was -26.6%; in experiment [2] (setting [5]), 312%. In addition, in the experiment on rat aorta, the IC50 is 0.575 nM.
For `CNC(=S)C1(c2ccc3nc(C)cn3c2)CCCCC1=O` (single isomer, unassigned; (-)) [Compound 3, (-)-N-methyl-1-(2-methylimidazo-[1,2-a]pyridin-6-yl)-2-oxocyclohexanecarbothioamide], the response vs control in vivo at 1 mg/kg in experiment [1] was 45.9 ± 3.9%. In addition, the values for the change in vivo at 0.003 mg/kg in experiment [2] (setting [4]) and in experiment [2] (setting [5]) were -27% and 198%, respectively. Moreover, the values for the IC50 (in experiment [3]; with rat aorta) were 759 nM and 6.17 nM, respectively.
On to `CNC(=S)C1(n2cnc([N+](=O)[O-])c2)CCCCC1OCc1ccccc1` (stereo not drawn) [Compound 10, 2-benzyloxy-N-methyl-1-(4-nitroimidazol-1yl)cyclohexanecarbothioamide], for which the response vs control in vivo at 1 mg/kg in experiment [1] was found to be 58.8 ± 5.7%. In addition, the change in vivo at 0.003 mg/kg was -16.3% in experiment [2] (setting [4]) and 169% in experiment [2] (setting [5]). The half-maximal inhibitory concentration (IC50) in experiment [3] was 51.3 nM; in the experiment with rat aorta, 0.49 nM.
